Experimental data published in patent US6605611B2, “Base analogues” (Nycomed Amersham PLC, priority 1997, dated 2003).

Legend:
Type in all cases: biochemical
[1] = tested on: exonuclease free Klenow fragment of DNA polymerase I (EFK); experiment: primer extension assay, EFK, Templates 1 and 2, Example 13; conditions: for substrate for the polymerase (EFK), incorporation: 20 μM total nucleotide, 37° C. for 3 minutes, Template 1 or Template 2; for substrate quality compared with the analogue with the shorter linker arm: EFK primer extension, 20 μM
Procedure: A primer extension assay was used to evaluate compounds (3.3a), (3.3b), (4.3a),(4.3b) and (8.1) as substrates for exonuclease free Klenow fragment of DNA polymerase I (EFK). The assay used a ^33P 5′ end labelled 15 mer primer hybridised to one of two 24 mer templates. The sequences of the primer and templates are:
(§1) One picomole ^33P labelled primer was hybridised to 2 picomoles of template in ×2 Klenow buffer. To this was added either 20 μM dCTP or 20 μM (3.3a) or 20 μM (3.3b) or 20 μM (4.3a) or 20 μM (4.3b) or 20 μM (8.1) or mixtures of dCTP and compound (3.3a) or (3.3b) or (4.3a) or (4.3b) or (8.1) keeping the total nucleotide concentration fixed at 20 μM. One unit EFK and 2 mU inorganic pyrophosphatase were used per reaction. Primer alone, primer plus template plus enzyme controls were also carried out. The reactions were incubated at 37° C. for 3 minutes. Reactions were then stopped by the addition of formamide/EDTA stop solution. Reaction products were separated on a 19% polyacrylamide 7M urea gel and the product fragments sized by comparison with a ^33P labelled 8 to 32 base oligonucleotide ladder after exposure to Kodak Biomax autoradiography film.

[2] = target: terminal deoxynucleotidyl transferase (Bos taurus, UniProt P06526); experiment: oligonucleotide tailing reaction with terminal deoxynucleotidyl transferase; conditions: 32 μM nucleotide, 25 U terminal deoxynucleotidyl transferase, 15 mer primer, 90 minutes at 37° C.
Text: 1-(2′-deoxy-5′-triphospho-β-D-ribofuranosyl)piperidino[2,3-d]pyrimidine-2(1H)-one (1.6), 6-methylamine-3-(5-triphospho-2-deoxy-β-D-erythro-pentofuranosyl)furano[2,3-d]pyrimidin-2-one) (3.3a) and 5-FAM-(6-methylamine-3-(5-triphospho-2-deoxy-β-D-erythro-pentofuranosyl)furano[2,3-d]pyrimidin-2-one) (3.3b), 6-methyl-N-(6-amino)-caproamide-3-(5-triphospho-2-deoxy-β-D-erythro-pentofuranosyl)furano[2,3-d]pyrimidin-2-one (4.3a) and 5-FAM-(6-methyl-N-(6-amino)-caproamide-3-(5-triphospho-2-deoxy-β-D-erythro-pentofuranosyl)furano[2,3-d]pyrimidin-2-one) (4.3b), 6-methylamine-3-(5-triphospho-2-deoxy-β-D-erythro-pentofuranosyl)pyrrolo[2,3-d]pyrimidin-2-one) (8.1), 6-methyl-N-(6-amino)-caproamide-3-(5-triphospho-2-deoxy-β-D-erythro-pentofuranosyl)pyrrolo[2,3-d]pyrimidin-2-one (10.1a), and the FAM and Cy5 of (10.1a, e.g. 10.1b and 10.1c) as substrates for terminal deoxynucleotidyl transferase. In order to test the ability of compounds (1.6), (3.3a), (3.3b), (4.3a), (4.3b), (8.1), (10.1a), (10.1b) and (10.1c) to be accepted by terminal deoxynucleotidyl transferase as a substrate, an oligonucleotide tailing reaction was performed.
A 15 mer primer (sequence: 5′ TGC ATG TGC TGG AGA 3′) and 8 to 32 base oligonucleotide markers were 5′ end labelled with [γ^33P] ATP and T4 polynucleotide kinase. Reactions were boiled for 5 minutes after labelling to remove any PNK activity. Four picomoles of the labelled primer, 25 U terminal deoxynucleotidyl transferase and 32 μM dATP, dCTP, dGTP, dTTP or compounds (1.6), (3.3a), (3.3b), (4.3a), (4.3b), (8.1), (10.1a), (10.1b) and (10.1c) were incubated in 25 μl 100 mM cacodylate buffer pH7.2, 2 mM CoCl2 and 0.2 mM 2-mercaptoethanol for 90 minutes at 37° C. The reactions were stopped by the addition of formamide stop solution and the reaction products run on a 19% polyacrylamide 7M urea gel with the labelled markers. Autoradiography using Biomax film was carried out on the dry gel.

[3] = tested on: exonuclease free Klenow fragment of DNA polymerase I (EFK); experiment: primer extension assay, EFK, Example 14; conditions: 80 μM (1.6), with or without 4 μM dNTPαS, 37° C. for 3 minutes
Procedure: A primer extension assay was used to evaluate compound (1.6) as a substrate for exonuclease free Klenow fragment of DNA polymerase I (EFK). The assay used a ^33P 5′ end labelled 15 mer primer hybridised to a 24 mer template. The sequences of the primer and template are:
One picomole ^33P labelled primer was hybridised to 2 picomoles of template in ×2 Klenow buffer. To this was added either 4 μM dNTPαS or 80 μM (1.6) or a mixture of 4 μM dNTPαS 80 μM (1.6). One unit EFK and 2 mU inorganic pyrophosphatase were used per reaction. Primer alone, primer plus template plus enzyme controls were also carried out. The reactions were incubated at 37° C. for 3 minutes. Reactions were then stopped by the addition of formamide I EDTA stop solution. Reaction products were separated on a 19% polyacrylamide 7M urea gel and the product fragments sized by comparison with a ^33P labelled 8 to 32 base oligonucleotide ladder after exposure to Kodak Biomax autoradiography film.

[4] = tested on: exonuclease free Klenow fragment of DNA polymerase I (EFK); experiment: primer extension assay, EFK, Example 12; conditions: 20 μM total nucleotide, 37° C. for 3 minutes, 24 mer template
Procedure: A primer extension assay was used to evaluate compounds (10.1a), (10.1b) and (10.1c) as substrates for exonuclease free Klenow fragment of DNA polymerase I (EFK). The assay used a ^33P 5′ end labelled 15 mer primer hybridised to a 24 mer template. The sequences of the primer and template are:
as §1, with “μM (10.1a)” for “μM (3.3a)”, “μM (10.1b)” for “μM (3.3b)”, “μM (10.1c)” for “μM (4.3a) or 20 μM (4.3b) or 20 μM (8.1)”, “compound (10.1a)” for “compound (3.3a)”, “or compound (10.1b)” for “or (3.3b)”, “or compound (10.1c)” for “or (4.3a) or (4.3b) or (8.1)”

[5] = tested on: AMV reverse transcriptase; experiment: 1st strand cDNA synthesis, incorporation monitored by 33P-dATP spike, TLC and gel
Procedure: Incorporation of compound (10.1a) into 1st strand cDNA was carried out using a balance of dCTP such that the total concentration of (10.1a) and dCTP was equivalent to each of the other three dNTP concentrations.
(10.1a) was used at three different percentages
These reactions were compared with reactions including Cy5 labelled dCTP. All reactions were monitored by carrying out the reaction in duplicate and monitoring one of the duplicates with a spike of ^33P-dATP.
1 μl ^33P-dATP-active samples only
1 μl AMV reverse transcriptase 20 U/μl
Incubate at 42° C. for 2½ hours
The cDNA reactions were monitored by TLC as follows
1 μl of sample was spotted onto PEI cellulose TLC plates and run in 1.25M Potassium phosphate buffer
Samples were then purified by Qiagen column and eluted in 50 μl of water. The active cDNA products were analysed on a 6% polyacrylamide gel
The gel was then covered in Saran wrap and exposed to phosphorscreen for 1 hour. Phosphorscreen analysis was carried out on the Molecular Dynamics Storm 860 instrument.

[6] = target: Thermus aquaticus DNA polymerase (Thermus aquaticus, UniProt P19821); experiment: incorporation into arabidopsis DNA by PCR; conditions: 5% to 50% (10.1a), balance dCTP, 35 cycles
Procedure: Incorporation of (10.1a) into arabidopsis DNA by PCR was carried out as follows:
The (10.1a) was used in the PCR at various percentages with a balance of dCTP such that the total concentration of (10.1a) and dCTP was equivalent to each of the other three base dNTP's. The percentages of (10.1a) used were:
After PCR, the samples were purified by Qiagen column and analysed by 1% agarose gel.

Sequence of terminal deoxynucleotidyl transferase (P06526 whole entry): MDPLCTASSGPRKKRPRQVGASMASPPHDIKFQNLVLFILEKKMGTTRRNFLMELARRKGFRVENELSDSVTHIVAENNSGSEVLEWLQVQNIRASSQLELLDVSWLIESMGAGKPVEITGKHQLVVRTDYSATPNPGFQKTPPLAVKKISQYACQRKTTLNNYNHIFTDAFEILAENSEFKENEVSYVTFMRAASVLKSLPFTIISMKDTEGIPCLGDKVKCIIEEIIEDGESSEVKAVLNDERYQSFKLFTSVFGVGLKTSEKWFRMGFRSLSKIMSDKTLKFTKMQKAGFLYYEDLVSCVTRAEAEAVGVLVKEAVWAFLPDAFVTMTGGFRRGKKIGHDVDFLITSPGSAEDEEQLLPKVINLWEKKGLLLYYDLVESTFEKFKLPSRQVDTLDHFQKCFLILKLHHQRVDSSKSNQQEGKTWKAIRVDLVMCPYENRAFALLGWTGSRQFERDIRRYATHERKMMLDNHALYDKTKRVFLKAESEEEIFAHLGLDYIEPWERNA
Sequence of Thermus aquaticus DNA polymerase (P19821 whole entry): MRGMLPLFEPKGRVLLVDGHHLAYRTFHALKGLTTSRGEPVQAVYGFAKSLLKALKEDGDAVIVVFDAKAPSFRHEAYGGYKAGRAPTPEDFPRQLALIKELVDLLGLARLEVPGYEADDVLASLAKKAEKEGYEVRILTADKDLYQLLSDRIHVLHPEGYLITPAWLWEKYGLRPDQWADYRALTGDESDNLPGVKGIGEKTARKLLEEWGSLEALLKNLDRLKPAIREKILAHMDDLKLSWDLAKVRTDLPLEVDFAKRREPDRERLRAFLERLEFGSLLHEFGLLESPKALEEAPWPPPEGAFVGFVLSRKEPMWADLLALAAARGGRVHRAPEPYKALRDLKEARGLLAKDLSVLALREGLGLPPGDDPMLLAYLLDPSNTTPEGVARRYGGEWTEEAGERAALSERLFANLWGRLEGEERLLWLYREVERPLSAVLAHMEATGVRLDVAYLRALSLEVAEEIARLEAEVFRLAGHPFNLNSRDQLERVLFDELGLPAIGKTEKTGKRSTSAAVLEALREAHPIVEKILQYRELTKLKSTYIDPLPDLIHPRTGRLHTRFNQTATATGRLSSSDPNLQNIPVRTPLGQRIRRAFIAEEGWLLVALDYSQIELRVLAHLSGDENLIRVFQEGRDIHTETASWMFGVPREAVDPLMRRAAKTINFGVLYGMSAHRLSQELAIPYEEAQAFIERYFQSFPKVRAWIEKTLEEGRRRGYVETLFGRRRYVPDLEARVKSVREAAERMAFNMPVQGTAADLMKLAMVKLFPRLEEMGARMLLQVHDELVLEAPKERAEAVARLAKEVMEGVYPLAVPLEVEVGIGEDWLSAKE

Q: With `NCCCCCC(=O)NCC=Cc1cn([C@H]2C[C@H](O)[C@@H](COP(=O)(O)OP(=O)(O)OP(=O)(O)O)O2)c(=O)nc1N` [5-allylaminocaproamide dCTP, reference compound] as the compound, how does the “incorporation by the polymerase” value ([1]; under similar assay conditions) read?
A: did not show any incorporation

Q: What does the source list for `O=c1nc2c(cn1C1CC(O)C(COP(=O)(O)OP(=O)(O)OP(=O)(O)O)O1)CCCN2` [Compound 1.6, 1-(2′-deoxy-5′-triphospho-β-D-ribofuranosyl)piperidino[2,3-d]pyrimidine-2(1H)-one]?
A: 3′ tail length [2]: equivalent to those produced by dCTP at the same concentration; substrate for EFK, incorporation in place of dCTP [3]: a substrate for EFK and that it was efficiently incorporated in place of dCTP

Q: `NCc1cc2cn([C@H]3C[C@H](O)[C@@H](COP(=O)(O)OP(=O)(O)OP(=O)(O)O)O3)c(=O)nc2o1` [Compound 3.3a] was tested. Which “substrate for the polymerase (EFK), incorporation” value [1] did it give?
A: not a substrate for the polymerase

Q: `O=C(NCc1cc2cn([C@H]3C[C@H](O)[C@@H](COP(=O)(O)OP(=O)(O)OP(=O)(O)O)O3)c(=O)nc2o1)c1ccc2c(c1)C(=O)OC21c2ccc(O)cc2Oc2cc(O)ccc21` [Compound 3.3b, 5-Carboxyfluoresceinyl-(6-methylamine-3-(5-triphospho-2-deoxy-β-D-erythro-pentofuranosyl)furano[2,3-d]pyrimidin-2-one)] was tested. Which “substrate for the polymerase (EFK), incorporation” value [1] did it give?
A: not a substrate for the polymerase using either of the Templates

Q: Which results are given for `NCCCCCC(=O)NCc1cc2cn([C@H]3C[C@H](O)[C@@H](COP(=O)(O)OP(=O)(O)OP(=O)(O)O)O3)c(=O)nc2o1` [Compound 4.3a, 6-Methyl-N-(6-amino)-caproamide-3-(5-triphospho-2-deoxy-β-D-erythro-pentofuranosyl)furano[2,3-d]pyrimidin-2-one]?
A: 3′ tail length [2]: 7-9 bases; substrate for the polymerase (EFK), incorporation [1]: a substrate for the polymerase again being able to replace dCTP; substrate quality compared with the analogue with the shorter linker arm [1]: better substrate than (3.3a)

Q: How did the “3′ tail length” value [2] turn out when `O=C(CCCCCNC(=O)c1ccc2c(c1)C(=O)OC21c2ccc(O)cc2Oc2cc(O)ccc21)NCc1cc2cn([C@H]3C[C@H](O)[C@@H](COP(=O)(O)OP(=O)(O)OP(=O)(O)O)O3)c(=O)nc2o1` [Compound 4.3b, 5-FAM-(6-methyl-N-(6-amino)-caproamide-3-(5-triphospho-2-deoxy-β-D-erythro-pentofuranosyl)furano[2,3-d]pyrimidin-2-one)] was run?
A: 9-14 bases

Q: And the “substrate for the polymerase (EFK), incorporation” value [1]?
A: only incorporated in reactions using Template 2

Q: For `NCc1cc2cn([C@H]3C[C@H](O)[C@@H](COP(=O)(O)OP(=O)(O)OP(=O)(O)O)O3)c(=O)nc2[nH]1` [Compound 8.1], which “substrate for the polymerase (EFK), incorporation” value [1] is on record?
A: a substrate for the polymerase being able to substitute for dCTP

Q: For `NCCCCCC(=O)NCc1cc2cn([C@H]3C[C@H](O)[C@@H](COP(=O)(O)OP(=O)(O)OP(=O)(O)O)O3)c(=O)nc2[nH]1` [Compound 10.1a, 6-methyl-N-(6-amino)-caproamide-3-(5-triphospho-2-deoxy-β-D-erythro-pentofuranosyl)pyrrolo[2,3-d]pyrimidin-2-one], which “3′ tail length” value [2] is on record?
A: 7-8 bases

Q: What about the “substrate for the polymerase (EFK), incorporation in place of dCTP” value [4] of the same compound?
A: surprisingly good substrate

Q: What about the “substrate quality compared with the analogue with the shorter linker arm” value [1] of the same compound?
A: better substrate than (8.1)

Q: What about the “33P-dATP Incorporation (TLC)” value ([5]; 50% (10.1a), balance dCTP) of the same compound?
A: 23.2%

Q: What about the “33P-dATP Incorporation (TLC)” value ([5]; 75% (10.1a), balance dCTP) of the same compound?
A: 16.5%

Q: What about the “33P-dATP Incorporation (TLC)” value ([5]; 100% (10.1a), no dCTP) of the same compound?
A: 11.5%

Q: And the “formation of PCR product, agarose gel analysis” value [6]?
A: resulted in the formation of PCR product

Q: How did the “3′ tail length” value [2] turn out when `O=C(CCCCCNC(=O)c1ccc2c(c1)C(=O)OC21c2ccc(O)cc2Oc2cc(O)ccc21)NCc1cc2cn([C@H]3C[C@H](O)[C@@H](COP(=O)(O)OP(=O)(O)OP(=O)(O)O)O3)c(=O)nc2[nH]1` [Compound 10.1b, 5-FAM-(6-methyl-N-(6-amino)-caproamide-3-(5-triphospho-2-deoxy-β-D-erythro-pentofuranosyl)pyrrolo[2,3-d]pyrimidin-2-one)] was run?
A: 18-24 bases

Q: With “Cy5-(6-methyl-N-(6-amino)-caproamide-3-(triphospho-2-2deoxy-β-D-erythro-pentofuranosyl)pyrrolo[2,3-d]pyrimidin-2-one [Compound 10.1c]” as the compound, how does the “3′ tail length” value [2] read?
A: greater than 30 bases
